Experimental data from PubChem BioAssay (NCI).
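These data come from cells grown in 96-well plates and exposed to compound for 48 hours at five concentrations. GI50 marks 50% less growth. At the TGI there is no net growth.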

How the values were obtained:
Experiment in all cases: NCI anticancer screen, dose series, 48 h
[1] = system: NCI-H23 lung
[2] = system: A549 NSCLC
[3] = system: UO-31 renal
[4] = system: SNB-19 CNS
[5] = system: MDA-MB-231 breast
[6] = system: SR leukemia
[7] = system: MALME-3M melanoma
[8] = system: SNB-75 CNS
[9] = system: A498 renal
[10] = system: BT-549 breast
[11] = system: M14 melanoma
[12] = system: IGROV1 ovarian
[13] = system: SF-295 CNS
[14] = system: CCRF-CEM leukemia
[15] = system: HCC-2998 colon
[16] = system: MOLT-4 leukemia
[17] = system: DU-145 prostate
[18] = system: LOX IMVI melanoma
[19] = system: CAKI-1 renal
[20] = system: UACC-257 melanoma
[21] = system: OVCAR-8 ovarian
[22] = system: U251 CNS
[23] = system: OVCAR-5 ovarian
[24] = system: SW-620 colon
[25] = system: UACC-62 melanoma
[26] = system: K-562 leukemia
[27] = system: 786-0 renal
[28] = system: SK-MEL-28 melanoma
[29] = system: SK-MEL-5 melanoma
[30] = system: OVCAR-3 ovarian
[31] = system: NCI-H460 lung
[32] = system: NCI/ADR-RES ovarian
[33] = system: COLO 205 colon
[34] = system: HCT-15 colon
[35] = system: SF-268 CNS
[36] = system: SF-539 CNS
[37] = system: HL-60(TB) leukemia
[38] = system: MDA-MB-435
[39] = system: SN12C renal
[40] = system: ACHN renal
[41] = system: EKVX NSCLC
[42] = system: RXF 393 renal
[43] = system: PC-3 prostate
[44] = system: OVCAR-4 ovarian
[45] = system: HT29 colon
[46] = system: TK-10 renal
[47] = system: NCI-H226 lung
[48] = system: KM12 colon
[49] = system: SK-MEL-2 melanoma
[50] = system: T-47D breast
[51] = system: HOP-62 NSCLC
[52] = system: NCI-H522 lung
[53] = system: RPMI-8226 leukemia
[54] = system: HS 578T breast
[55] = system: HOP-92 NSCLC
[56] = system: HCT-116 colon
[57] = system: SK-OV-3 ovarian

SMILES: COc1ccc(NC2=C(I)C(=O)c3ncccc3C2=O)cc1
- GI50 [1]: 327 nM
- TGI [1]: 1680 nM
- GI50 [2]: 1840 nM
- TGI [2]: 3910 nM
- GI50 [3]: 850 nM
- TGI [3]: 2210 nM
- GI50 [4]: 1180 nM
- TGI [4]: 3290 nM
- GI50 [5]: 2080 nM
- TGI [5]: 7640 nM
- GI50 [6]: 546 nM
- TGI [6]: 9610 nM
- GI50 [7]: 1190 nM
- TGI [7]: 2440 nM
- GI50 [8]: 1400 nM
- TGI [8]: 2770 nM
- GI50 [9]: 1740 nM
- TGI [9]: 3280 nM
- GI50 [10]: 1270 nM
- TGI [10]: 2590 nM
- GI50 [11]: 1290 nM
- TGI [11]: 2900 nM
- GI50 [12]: 417 nM
- TGI [12]: 1930 nM
- GI50 [13]: 1670 nM
- TGI [13]: 3160 nM
- GI50 [14]: 2040 nM
- TGI [14]: 6550 nM
- GI50 [15]: 1450 nM
- TGI [15]: 3010 nM
- GI50 [16]: 2060 nM
- TGI [16]: 5790 nM
- GI50 [17]: 524 nM
- TGI [17]: 1870 nM
- GI50 [18]: 309 nM
- TGI [18]: 1570 nM
- GI50 [19]: 1210 nM
- TGI [19]: 2620 nM
- GI50 [20]: 1350 nM
- TGI [20]: 2720 nM
- GI50 [21]: 1840 nM
- TGI [21]: 5790 nM
- GI50 [22]: 673 nM
- TGI [22]: 2120 nM
- GI50 [23]: 1690 nM
- TGI [23]: 3150 nM
- GI50 [24]: 1130 nM
- TGI [24]: 3060 nM
- GI50 [25]: 1660 nM
- TGI [25]: 3400 nM
- GI50 [26]: 533 nM
- TGI [26]: 5190 nM
- GI50 [27]: 1850 nM
- TGI [27]: 4740 nM
- GI50 [28]: 1660 nM
- TGI [28]: 3300 nM
- GI50 [29]: 347 nM
- TGI [29]: 1420 nM
- GI50 [30]: 270 nM
- TGI [30]: 1130 nM
- GI50 [31]: 647 nM
- TGI [31]: 2240 nM
- GI50 [32]: 1570 nM
- TGI [32]: 4410 nM
- GI50 [33]: 1680 nM
- TGI [33]: 3470 nM
- GI50 [34]: 516 nM
- TGI [34]: 2420 nM
- GI50 [35]: 1280 nM
- TGI [35]: 4230 nM
- GI50 [36]: 1410 nM
- TGI [36]: 2750 nM
- GI50 [37]: 1940 nM
- TGI [37]: 4340 nM
- GI50 [38]: 253 nM
- TGI [38]: 628 nM
- GI50 [39]: 1050 nM
- TGI [39]: 2270 nM
- GI50 [40]: 1810 nM
- TGI [40]: 8530 nM
- GI50 [41]: 1730 nM
- TGI [41]: 3680 nM
- GI50 [42]: 1410 nM
- TGI [42]: 2820 nM
- GI50 [43]: 972 nM
- TGI [43]: 7990 nM
- GI50 [44]: 1120 nM
- TGI [44]: 2350 nM
- GI50 [45]: 3070 nM
- TGI [45]: 10200 nM
- GI50 [46]: 2140 nM
- TGI [46]: 3960 nM
- GI50 [47]: 1420 nM
- TGI [47]: 2830 nM
- GI50 [48]: 1680 nM
- TGI [48]: 3770 nM
- GI50 [49]: 1490 nM
- TGI [49]: 3180 nM
- GI50 [50]: 1590 nM
- TGI [50]: 4170 nM
- GI50 [51]: 457 nM
- TGI [51]: 1870 nM
- GI50 [52]: 827 nM
- TGI [52]: 2530 nM
- GI50 [53]: 1170 nM
- TGI [53]: 3850 nM
- GI50 [54]: 834 nM
- TGI [54]: 5040 nM
- GI50 [55]: 1480 nM
- TGI [55]: 3780 nM
- GI50 [56]: 494 nM
- TGI [56]: 2510 nM
- GI50 [57]: 1360 nM
- TGI [57]: 2720 nM
